Patent publication US7563951B2, “Soybean seeds and plants exhibiting natural herbicide resistance” (Natural Genes, Inc., priority 2002, dated 2009)

Tested on: soybean seeds
Experiment: Seed pre-soak in 2 percent aqueous glyphosate, then planting and observing germination
Assay type: in vivo, Glycine max L.
Settings: six hour soak at room temperature, observed three weeks
Excerpt: The identification of soybean germplasm within which naturally-occurring herbicide resistance genes reside involved the screening of thirty-four soybean lines obtained from publicly-available seed stocks. The initial step in the screening was to pre-soak individual batches of seeds representing the thirty-four test lines in a 2 percent aqueous solution of glyphosate at room temperature. The individual batches of seeds were immersed in this 2 percent solution for a period of six hours. […] This screening step was essential to determine how seeds responded to the herbicide. Twelve of the varieties were present as approximately 2,500 seeds. There were approximately 5,000 seeds of the remaining 22 varieties. Each variety was immersed in separate containers to assure variety identification and isolation. The varieties that were tested are identified in Table 1.
After this initial pre-soak, each lot of seeds was labeled and was placed in a flat (36″×18″×9″) containing a soil/peat mixture growth medium, with the mixture being 50 percent top soil (sandy loam) and 50 percent peat moss, that was provided at a depth of 9 inches. […]
Germination and emergence of any seedlings was then observed for the next three weeks. […] Of these five lines, the ‘Dwight’ and ‘Jack’ varieties were chosen for further screening using large quantities of seeds.

For O=C(O)CNCP(=O)(O)O [glyphosate, N-(phosphonomethyl)glycine], the “Germination of herbicide-treated soybean seeds” value was “failed to germinate”.
